Experiment [1] can be described thus: TR-FRET retinol binding assay of mRBP4 proteins. Particulars: retinol binding affinities of mRBP4 proteins. The procedure: The binding affinities of mRBP4 proteins were determined by a TR-FRET retinol binding assay.
WT and pNO2Phe mRBP4 mutant proteins were labeled with biotin using the Sulfo-NHS-Biotin kit (Pierce, Rockford, Ill.) according to manufacturer instructions. For determination of retinol binding activity, 10 nM biotin-labeled RBP4 was mixed with 1 nM Streptavidin-Europium chelate (LANCE® Eu-W8044 Streptavidin, Perkin Elmer, Foster City, Calif.). Increasing concentrations of Cy5-labeled retinol were added to the reaction and retinol binding was assessed by homogeneous time-resolved fluorescence resonance energy transfer (TR-FRET).
Background: Time-resolved FRET reads energy transfer from a long-lived donor to a nearby acceptor.

A further experiment addresses T1, WT mRBP4 (Mus musculus, UniProt Q00724).
T1 construct: The cDNA encoding murine RBP4 (aa 19-201); made in house; host or cells: E. coli BL21(DE3)
The experiment in a line: Immunization of mice with mRBP4 variants (RIMMS), serum IgG titers by ELISA. The experiment is classed as in vivo. Particulars: Bcl2 mice (FIG. 19), C57BL/6 mice (FIG. 26), RIMMS protocol. The method, then: 30 μl of 0.5 μg/ml protein was used to coat the wells of Maxisorp 384-well plates (Nunc, Rochester, N.Y.) overnight at 4° C. After washing with PBS+0.05% Tween 20 (PBST), the coated plates were blocked with 80 μl of 1% BSA in PBS, and washed again with PBST. The plates were sequentially incubated with 20 μl of primary antibody or serum diluted in 1% BSA in PBS, 20 μl of HRP-conjugated goat anti-mouse IgG or anti-mouse IgM (Jackson ImmunoResearch Laboratories, West Grove, Pa.), and 20 μl of TMB substrate (KPL, Gaithersburg, Md.), and read at an absorbance of 650 nm. Between incubations, the plates were washed at least six times with PBST.
Before measurement, serum samples were diluted 1:1,000 with 1% BSA in PBS buffer.

As for “WT mRBP4: wild-type murine retinol binding protein 4, N-terminal His6-tagged, expressed in E. coli”, the Kd (commonly the equilibrium constant for the complex coming apart) in experiment [1] came out at 0.171 µM. Further, in the experiment with WT mRBP4, the “serum IgG titers against WT mRBP4” value is recorded as “insignificant serum IgG titers”.

Values taken from patent US8318172B2, “Breaking immunological tolerance with a genetically encoded unnatural amino acid” (The Scripps Research Institute, priority 2008, dated 2012).
